What was measured:
Format in all cases: in vivo
[1] = system: Neotropical Brown Stink Bug (Euschistus heros); assay: Neotropical brown stink bug, sprayed soybean pods in cups; details: 120 h, 100 ppm, adults on soybean pods, after 5 days, in comparison with untreated controls, read-out: mortality
Description: B.12 Neotropical Brown Stink Bug (Euschistus heros)
(§1) The active compound was dissolved at the desired concentration in a mixture of 1:1 (vol:vol) distilled water: acetone. Surfactant (Kinetic HV) was added at a rate of 0.01% (vol/vol). The test solution was prepared at the day of use.
Soybean pods were placed in microwavable plastic cups and inoculated with ten adult stage E. heros. Using a hand atomizer, approximately 1 ml solution is sprayed into each cup, insects and food present. A water source was provided (cotton wick with water). Each treatment was replicated 2-fold. Assay arenas were kept at about 25° C. Percent mortality was recorded after 5 days.

[2] = system: Tobacco Budworm (Heliothis virescens); assay: Tobacco budworm, insect diet microtiter plate test; details: 120 h, 2500 ppm, eggs on sprayed insect diet, egg and larval mortality after 5 days, in comparison with untreated controls, read-out: mortality
Description: B.4 Tobacco Budworm (Heliothis virescens)
For evaluating control of tobacco budworm (HeliothiS virescens) the test unit consisted of 96-well-microtiter plates containing an insect diet and 15-25 H. virescens eggs.
The compounds were formulated using a solution containing 75% v/v water and 25% v/v DMSO. Different concentrations of formulated compounds were sprayed onto the insect diet at 10 μl, using a custom built micro atomizer, at two replications.
(§2) After application, microtiter plates were incubated at about 28±1° C. and about 80±5% relative humidity for 5 days. Egg and larval mortality was then visually assessed.

[3] = system: Vetch Aphid (Megoura viciae); assay: Vetch aphid, broad bean leaf disk test; details: foliar, 120 h, 2500 ppm, adult aphids on sprayed broad bean leaf disks, 5 days, in comparison with untreated controls, read-out: mortality
Description: B.3 Vetch Aphid (Megoura viciae)
For evaluating control of vetch aphid (Megoura viciae) through contact or systemic means the test unit consisted of 24-well-microtiter plates containing broad bean leaf disks.
The compounds were formulated using a solution containing 75% v/v water and 25% v/v DMSO. Different concentrations of formulated compounds were sprayed onto the leaf disks at 2.5 μl, using a custom built micro atomizer, at two replications.
After application, the leaf disks were air-dried and 5-8 adult aphids placed on the leaf disks inside the microtiter plate wells. The aphids were then allowed to suck on the treated leaf disks and incubated at about 23±1° C. and about 50±5% relative humidity for 5 days. Aphid mortality and fecundity was then visually assessed.

[4] = system: Rice Green Leafhopper (Nephotettix virescens); assay: Rice green leafhopper, sprayed rice seedlings; details: 300 ppm, adults on sprayed rice seedlings, after 72 hours, in comparison with untreated controls, read-out: mortality
Description: B.8 Rice Green Leafhopper (Nephotettix virescens)
Rice seedlings were cleaned and washed 24 hours before spraying. The active compounds were formulated in 1:1 acetone:water (vol:vol), and 0.01% vol/vol surfactant (Kinetic HV) was added. Potted rice seedlings were sprayed with 5-6 ml test solution, air dried, covered with Mylar cages cages and inoculated with 10 adults. Treated rice plants were kept at about 28-29° C. and relative humidity of about 50-60%. Percent mortality was recorded after 72 hours.

[5] = system: Green Soldier Stink Bug (Nezara viridula); assay: Green soldier stink bug, sprayed soybean pods in Petri dishes; details: 120 h, 300 ppm, late 3rd instar on soybean pods, after 5 days, in comparison with untreated controls, read-out: mortality
Description: B.11 Green Soldier Stink Bug (Nezara viridula)
The active compound was dissolved at the desired concentration in a mixture of 1:1 (vol:vol) distilled water:acetone. Surfactant (Kinetic HV) was added at a rate of 0.01% (vol/vol). The test solution was prepared at the day of use.
Soybean pods were placed in glass Petri dishes lined with moist filter paper and inoculated with ten late 3rd instar N. viridula. Using a hand atomizer, approximately 2 ml solution is sprayed into each Petri dish. Assay arenas were kept at about 25° C. Percent mortality was recorded after 5 days.

[6] = system: Green Peach Aphid (Myzus persicae); assay: Green peach aphid, systemic test on artificial diet in microtiter plates; details: 72 h, 2500 ppm, adult aphids on treated artificial diet, 3 days, in comparison with untreated controls, read-out: mortality
From the text: B.2 Green Peach Aphid (Myzus persicae)
For evaluating control of green peach aphid (Myzus persicae) through systemic means the test unit consisted of 96-well-microtiter plates containing liquid artificial diet under an artificial mem brane.
The compounds were formulated using a solution containing 75% v/v water and 25% v/v DMSO. Different concentrations of formulated compounds were pipetted into the aphid diet, using a custom built pipetter, at two replications.
After application, 5-8 adult aphids were placed on the artificial membrane inside the microtiter plate wells. The aphids were then allowed to suck on the treated aphid diet and incubated at about 23±1° C. and about 50±5% relative humidity for 3 days. Aphid mortality and fecundity was then visually assessed.

[7] = system: Orchid Thrips (dichromothrips corbetti); assay: Orchid thrips, floral-immersion technique; details: 300 ppm; adult thrips on dipped orchid petals; 72 hours after treatment; in comparison with untreated controls; read-out: mortality
Description: B.7 Orchid Thrips (dichromothrips corbetti)
Dichromothrips corbetti adults used for bioassay were obtained from a colony maintained continuously under laboratory conditions. For testing purposes, the test compound is diluted in a 1:1 mixture of acetone:water (vol:vol), plus Kinetic HV at a rate of 0.01% v/v.
Thrips potency of each compound was evaluated by using a floral-immersion technique. All petals of individual, intact orchid flowers were dipped into treatment solution and allowed to dry in Petri dishes. Treated petals were placed into individual re-sealable plastic along with about 20 adult thrips. All test arenas were held under continuous light and a temperature of about 28° C. for duration of the assay. After 3 days, the numbers of live thrips were counted on each petal. The percent mortality was recorded 72 hours after treatment.

[8] = system: Brown Marmorated Stink Bug (Halyomorpha halys); assay: Brown marmorated stink bug, sprayed peanuts and soybean seeds in cups; details: 120 h, 100 ppm, adults on peanuts and soybean seeds, after 5 days, in comparison with untreated controls, read-out: mortality
Description: B.13 Brown Marmorated Stink Bug (Halyomorpha halys)
as §1
Row peanuts and soybean seeds were placed into microwavable plastic cups and inoculated with five adult stage H. halys. Using a hand atomizer, approximately 1 ml solution is sprayed into each cup, insects and food present. A water source was provided (cotton wick with water). Each treatment is replicated 4-fold. Assay arenas are kept at about 25° C. Percent mortality was recorded after 5 days.

[9] = system: Mediterranean Fruitfly (Ceratitis capitata); assay: Mediterranean fruitfly, insect diet microtiter plate test; details: 120 h, 2500 ppm, eggs on sprayed insect diet, egg and larval mortality after 5 days, in comparison with untreated controls, read-out: mortality
Description: B.6 Mediterranean Fruitfly (Ceratitis capitata)
For evaluating control of Mediterranean fruitfly (CeratitiS capitata) the test unit consisted of microtiter plates containing an insect diet and 50-80 C. capitata eggs. The compounds were formulated using a solution containing 75% v/v water and 25% v/v DMSO. Different concentrations of formulated compounds were sprayed onto the insect diet at 5 μl, using a custom built micro atomizer, at two replications.
as §2

O=C(NC1CS(=O)(=O)C1)c1ccc(C2=NCC(c3cc(Cl)c(F)c(Cl)c3)(C(F)(F)F)C2)c2c1CCC2 (stereo not drawn) [Compound 2-3, 7-[3-(3,5-Dichloro-4-fluoro-phenyl)-3-(trifluoromethyl)-2,4-dihydropyrrol-5-yl]-N-(1,1-dioxothietan-3-yl)indane-4-carboxamide]
≥ 75%: mortality at 100 ppm [1] | mortality at 2500 ppm [2] | mortality at 2500 ppm [3] | mortality at 300 ppm [4] | mortality at 300 ppm [5] | mortality at 2500 ppm [6] | mortality at 300 ppm [7] | mortality at 100 ppm [8] | mortality at 2500 ppm [9]
